# In patent publication US20210236425A1, “NEW TREATMENT OF INTERSTITIAL LUNG DISEASES” (INIM PHARMA AB, priority 2018, published 2021):
# Key:
# [1] = Dissolution kinetics in SLF, USP2 apparatus; assay type: physicochemical; conditions: SLF pH 7.4, 37° C., 5 mg in 500 mL
# Procedure: The dissolution kinetics of the 3 different loading samples described in Example 5 were characterized in SLF (pH 7.4; made up with the salts NaCl, NaHCO3, KCl, MgCl2, CaCl2, Na2SO4, sodium citrate dihydrate, NaH2PO4 (all from Sigma)) at 37° C. using a USP2 dissolution apparatus with stirring speed 50 rpm. Free, unloaded thalidomide was used as control. Concentration of drug at set times after release was measured by a UV/vis spectrometer (Cecil 3021) at 220 nm.
# The dose of thalidomide was calculated as 5 mg of thalidomide in 500 mL of SLF.
# [2] = Dissolution kinetics in SLF with Tween 80, non-sink conditions; assay type: physicochemical; conditions: SLF with 1 wt % Tween 80, 80 mg dosage
# Procedure: Given that thalidomide rapidly recrystallizes in solution, an experiment was conducted in the presence of a surfactant to stabilize the dissolved drug.
# Tween 80 (1 wt %; Sigma) was added in the dissolution bath in SLF media. The dosage was increased to 80 mg to investigate the dissolution kinetics at high drug concentration, to simulate dissolution in non-sink conditions.
smiles,measurement,setting,value
"O=C1CCC(N2C(=O)c3ccccc3C2=O)C(=O)N1 (centres unmarked) [free drug, thalidomide]",time in which Cmax was achieved,[1],30 min
same,time to reach Cmax,[2],30 min
